Laboratory results: the NIST ThermoML archive (doi:10.1021/acs.jced.8b00170)
± gives the expanded uncertainty stated by the source. Each block holds one compound with its values, some of them ahead of it.

Assays:
[1] = wn = mass fraction of the nth substance listed; conditions: 101.3 kPa, Liquid, Pycnometric method
[2] = Molar enthalpy of transition or fusion; conditions: Crystal; DSC
[3] = Crystal; DTA

mass density ([1]; 288.15 K, w1 = 0.2202): 933 ± 18 kg/m3
mass density ([1]; 298.15 K, w1 = 0.2878): 948 ± 18 kg/m3
mass density ([1]; 308.15 K, w1 = 0.3605): 964 ± 19 kg/m3
Compound: Cc1ccc2c(c1)C(=O)OC2=O [4-methylphthalic anhydride] + CCOC(C)=O

mass density ([1]; 288.15 K, w1 = 0.2851): 944 ± 18 kg/m3
mass density ([1]; 298.15 K, w1 = 0.3937): 957 ± 19 kg/m3
mass density ([1]; 308.15 K, w1 = 0.5686): 975 ± 18 kg/m3
Compound: O=Cc1ccc2ccccc2c1 [β-naphthaldehyde] + CCOC(C)=O

Molar enthalpy of transition or fusion [2]: 4.5 ± 0.263 kcal/mol
Normal melting temperature [3]: 88.2 ± 2 °C
Compound: Cc1ccc2c(c1)C(=O)OC2=O [4-methylphthalic anhydride]
